Data reported in patent US20030017618A1, “Chemical sensor and method of detecting chemical” (priority 2000, published 2003).

Experiments:
[1] = target: T1, bovine derivation odorant binding protein (OBP) (Bos taurus, UniProt P07435); details: grade in words (high / moderate affinity); cited from earlier work
T1 sequence (P07435 1-159): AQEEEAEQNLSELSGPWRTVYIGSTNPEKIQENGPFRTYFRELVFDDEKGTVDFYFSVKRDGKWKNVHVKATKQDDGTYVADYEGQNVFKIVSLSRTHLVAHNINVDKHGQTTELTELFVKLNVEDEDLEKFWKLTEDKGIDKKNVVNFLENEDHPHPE

OBP 6C = target: T2, OBP 6C (Bos taurus, UniProt P07435); experiment: quantity of immobilization of OBP 6C to NTA sensor chip (surface plasmon resonance, BiacoreX) in presence of odorant; type: binding, bovine; details: for affinity for the OBP 6C: OBP solution 200 nM, 25° C.
T2 construct: successively elongated for finally synthesizing the whole length of the OBP gene; made in house; host or cells: E. coli BL21 (pET 28a(+), pETOBP-His)
T2 sequence (P07435 1-159): T1 sequence (P07435 1-159)
Procedure: In preparation of the OBP 6C solution employed in the present Inventive Example, the OBP 6C prepared in the aforementioned manner was dissolved in an EB (eluent buffer) and diluted so that the concentration of the solution reached 200 nM.
In preparation of the odorant solutions employed in the present Inventive Example, on the other hand, the six types of odorants, i.e., cineol, linalyl acetate, pinene, geraniol, citronellal and oxidized citronellal were dissolved in ethanol solutions (EtOH) respectively, for preparing odorant solutions of 10^−5 M in concentration as to the respective odorants.
100 μl of the OBP solution having the concentration of 200 nM prepared in the aforementioned manner and 0.1 μl of each odorant solution having the concentration of 10^−5 M were mixed with each other, for preparing six types of sample solutions employed for measurement. In this case, the final concentration of the odorant in each sample solution is […].
An ethanol solution of the OBP 6C (final concentration of EtOH: 0.1%) containing no odorant was also prepared as a comparative sample (blank).
Each sample solution prepared in the aforementioned manner was left to stand at 25° C. for one hour.
Then, an NTA sensor chip (by Biacore) was set in BiacoreX (by Biacore) and thereafter the temperature was set to 25° C. for performing priming with an elution buffer shown in Table 4 described later. Thereafter stabilization of the base was confirmed and the elution buffer was continuously fed at a flow velocity of 20 μl/min. until the temperature reached the set value.
Further, a reproduced solution (30 μl) shown in Table 4 described later was added at a flow velocity of 10 μl/min. and excessive bivalent cation was removed. Then, an Ni solution (30 μl) shown in Table 4 described later was added at a flow velocity of 10 μl/min. for chelating Ni to NTA and immobilizing Ni.
Then, one of the sample solutions (10 μl) prepared in the above was added at a flow velocity of 1 μl/min. for 10 minutes, for immobilizing the OBP 6C onto the sensor chip. After completion of immobilization, the quantity of immobilization of the OBP 6C was measured. Thereafter the reproduced solution shown in Table 4 was employed for washing and removing the OBP 6C immobilized onto the sensor chip.
Operations similar to the above were performed also as to the other sample solutions, for measuring the quantities of immobilization of the OBP 6C as to all of the six types of sample solutions and the comparative (blank) sample solution.
In this case, the quantity of immobilization of the comparative sample (blank) containing no odorant was regarded as 100% for calculating relative values of the quantities of immobilization of the OBP 6C in the respective samples with reference thereto.
In the present Inventive Example, an OBP 6C solution was first prepared along with preparation of DMO solutions. In this case, the OBP 6C solution was prepared by a method similar to the preparation method in Inventive Example 1. In preparation of the DMO solutions, DMO was dissolved in ethanol (EtOH), for preparing solutions of 10^−3, 10^−4, 10^−5 and 10^−6 M in concentration respectively.
100 μl of the OBP 6C solution having the concentration of […] and 0.5 μl of each of the DMO solutions of 10^−3, 10^−4, 10^−5 and 10^−6 M, thereby preparing sample solutions having DMO final concentration values of 5×10^−6, 5×10^−7, 5×10^−8 and 5×10^−9 M respectively. Also in this case, an ethanol solution (final concentration of EtOH: 0.1%) of the OBP 6C containing no DMO was prepared as a comparative sample, similarly to the case of Inventive Example 1.
The respective sample solutions prepared in the aforementioned manner were left to stand at 25° C. for one hour.
After preparing the sample solutions in the aforementioned manner, the quantities of immobilization of the OBP 6C were measured as to the respective sample solutions by a method similar to that in Inventive Example 1.

[2] = Inventive Example 1, FIG. 12, odorant final concentration 10^−8 M, comparison between odorants
[3] = Inventive Example 1, FIG. 12, odorant final concentration 10^−8 M, blank regarded as 100%, comparison between odorants

Compound | affinity for the OBP [1] | further results
CC(C)CCCC(C)CCO (centres unmarked) | high affinity | DMO concentration that can be determined from the quantity of immobilization of the OBP 6C (quantitative limit) (OBP 6C; Inventive Example 2, FIG. 13): at least 10^−8 M; DMO concentration range with constant correlation between concentration and quantity of immobilization of the OBP 6C (OBP 6C; Inventive Example 2, FIG. 13, DMO 5×10^−6 to 5×10^−9 M): at least 5×10^−8 M; quantity of immobilization of the OBP 6C (OBP 6C; Inventive Example 2, FIG. 13, DMO concentration smaller than 10^−8 M, versus absence of the odorant): equalized with the quantity of immobilization
CCCCC/C(C=O)=C/c1ccccc1 [amyl cinnamic aldehyde] | high affinity | 
CC/C(=C\CC1CC=C(C)C1(C)C)CO (centres unmarked) [bacdanol] | moderate affinity | 
O=C(c1ccccc1)c1ccccc1 [benzophenone] | high affinity | 
O=C(OCc1ccccc1)c1ccccc1 [benzyl benzoate] | high affinity | 
CC(C)CC(=O)OCc1ccccc1 [benzyl isovalerate] | high affinity | 
CC(C)CC(=O)OC1CC2CCC1(C)C2(C)C (centres unmarked) [bornyl isovalerate] | moderate affinity | 
CC1C(C)(C)C2=C(C(=O)CCC2)C1(C)C (centres unmarked) [cashmeran] | moderate affinity | 
CC/C=C\CC1=C(C)CCC1=O [cisjasmone] | moderate affinity | 
COC(C=C(C)CCC=C(C)C)OC [citral dimethyl acetal] | moderate affinity | 
CC(C)=CCCC(C)=CC#N [citralva] | high affinity | 
CC(C)=CCCC(C)CC=O (centres unmarked) [citronellal] | moderate affinity | affinity for the OBP 6C (OBP 6C; [2]): higher affinity for the OBP 6C as compared with geraniol; quantity of immobilization of the OBP 6C (OBP 6C; [3]): reduced in citronellal as compared with geraniol
CC(C)=CCCC(C)CCO (centres unmarked) [citronellol] | high affinity | 
CC(=O)OCCC(C)CCC=C(C)C (centres unmarked) [citronellyl acetate] | moderate affinity | 
CC(C)C/C=C(/C=O)c1ccccc1 [cocal] | moderate affinity | 
CCCCCCCCCC=O [decanal] | moderate affinity | 
CCOC(=O)c1ccccc1C(=O)OCC [diethylphthalate] | moderate affinity | 
C=CC(C)CCCC(C)(C)O (centres unmarked) [dihydromyrcenol] | high affinity | 
CC(C)CCCC(C)(C)O [dimethol] | moderate affinity | 
CCCCC[C@H]1C(=O)CC[C@H]1CC(=O)OC [epimethyl dihydrojasmonate] | moderate affinity | 

Compound | affinity for the OBP [1] | further results
C=CCc1ccc(O)c(OC)c1 [eugenol] | moderate affinity | 
CC1COCc2cc3c(cc21)C(C)(C)C(C)C3(C)C (centres unmarked) [galaxolide] | moderate affinity | 
CC(C)=CCC/C(C)=C/CO [geraniol] | moderate affinity | 
CC(C)=CCC/C(C)=C/CCC=O [geranyl acetaldehyde] | moderate affinity | 
CC(=O)OC/C=C(\C)CCC=C(C)C [geranyl acetate] | moderate affinity | 
CCCCCCC=O [heptanal] | moderate affinity | 
CCCCCCC(C=O)=Cc1ccccc1 [hexyl cinnamic aldehyde] | high affinity | 
CCCCCCOC(=O)C(C)CC (centres unmarked) [hexyl methylbutyrate] | moderate affinity | 
CCCCCC1COCCC1OC(C)=O (centres unmarked) [jasmal] | moderate affinity | 
C=CC(C)(O)CCC=C(C)C (centres unmarked) [linalool] | moderate affinity | 
CC(C)[C@@H]1CC[C@@H](C)CC1=O [menthone] | moderate affinity | 
CCCCCC1C(=O)CCC1CC(=O)OC (centres unmarked) [methyl dihydrojasmonate] | moderate affinity | 
CC(C)=CCCC1=CCC(C=O)CC1 (centres unmarked) [myrmac aldehyde] | moderate affinity | 
C/C=C(C)\C=C\C=C(C)C [neo-alloocimen] | moderate affinity | 
CC(C)=CCC/C(C)=C\CO [nerol] | moderate affinity | 
CCCCCCCCC=O [nonanal] | moderate affinity | 
CCCCCCCCOC(=O)C(C)C [octyl isobutyrate] | moderate affinity | 
CCCCCCCCOC(=O)CC(C)C [octyl isovalerate] | moderate affinity | 
OCCc1ccccc1 [phenetyl alcohol] | moderate affinity | 
CC1(C)C2CC=C(CCC=O)C1C2 (centres unmarked) [pinoacetaldehyde] | moderate affinity | 

Compound | affinity for the OBP [1] | further results
CC1=C(/C=C/C(C)=C/C=C/C(C)=C/C=O)C(C)(C)CCC1 [retinal] | moderate affinity | 
CC1=C(/C=C/C(C)=C/C=C/C(C)=C/CO)C(C)(C)CCC1 [retinol] | moderate affinity | 
Cc1c[nH]c2ccccc12 [skatole] | high affinity | 
CCCCCCCCCCCCCC=O [tetradecanal] | high affinity | 
CCCCCCCCCCC=O [undecanal] | high affinity | 
CC(=O)OC1CCC(C(C)(C)C)CC1 (centres unmarked) [vertenex] | moderate affinity | 
agrumea | moderate affinity | 
ambrettolide | moderate affinity | 
carbon | moderate affinity | 
coniferane | moderate affinity | 
dimethyl octane | moderate affinity | 
dimethyl octhene | moderate affinity | 
heptenal | moderate affinity | 
hexyl pyridine | high affinity | 
ionone | moderate affinity | 
jessemal | moderate affinity | 
musk 89 | high affinity | 
oxidized citronellal |  | affinity for the OBP 6C (OBP 6C; [2]): reduced in oxidized citronellal as compared with non-oxidized citronellal; quantity of immobilization of the OBP 6C (OBP 6C; [3]): increased in oxidized citronellal as compared with the non-oxidized case
pinylisobutyl aldehyde | moderate affinity | 
